Laboratory results: patent US11197903B2, “Composition containing a bean extract for improving blood circulation and vascular health and method for improving blood circulation and vascular health” (AMOREPACIFIC CORPORATION, priority 2009, dated 2021)

Assays:
[1] = tested on: rats fed high-cholesterol diet; assay: Serum and liver lipid levels in high-cholesterol diet animal model; format: in vivo, rat; settings: 200 mg/kg orally, 4 weeks
Experimental: 8-week-old female rats weighing 250-300 g were kept in polycarbonate cages, 8 heads per cage, maintained at 22±2° C. and 55±15% relative humidity with 12/12-hr light/dark cycles. Normal diet or high-cholesterol diet was provided and water was given freely. Fenofibric acid (200 mg/kg) used for treatment of hyperlipidemia was suspended in 1% methyl cellulose (MC) and orally administered as a positive control. The seoritae extract (200 mg/kg) was orally administered once a day for 4 weeks. […] After the centrifugation, total cholesterol, LDL-cholesterol, HDL-cholesterol and triglyceride levels in the obtained serum were evaluated. The analysis was performed using an automated hematology analyzer and the Roche diagnostic kit. The result is shown in Table 17 (serum lipids) and Table 18 (liver lipids).

[2] = in vivo
Experimental: Bleeding time was compared for the cases where 20% ethanol seoritae extract, aspirin or clopidogrel was treated.

| Structure (SMILES) | Total cholesterol ([1]; liver) [µg/mg] | Triglyceride ([1]; liver) [µg/mg] | HDL-cholesterol ([1]; serum) [mg/dL] | LDL-cholesterol ([1]; serum) [mg/dL] | Total cholesterol ([1]; serum) [mg/dL] | bleeding time (FIG. 18) [2] |
| --- | --- | --- | --- | --- | --- | --- |
| CC(C)(Oc1ccc(C(=O)c2ccc(Cl)cc2)cc1)C(=O)O [Positive control, Fenofibric acid] | 15.43 ± 0.52 | 185.39 ± 23.84 | 87.89 ± 6.84 | 75.34 ± 2.80 | 112.42 ± 13.33 | – |
| CC(=O)Oc1ccccc1C(=O)O [aspirin] | – | – | – | – | – | significant increase of bleeding time |
| COC(=O)[C@H](c1ccccc1Cl)N1CCc2sccc2C1 [clopidogrel] | – | – | – | – | – | significant increase of bleeding time |
